These are literature values, as cited in PMC6838683, “Discovery of Human Signaling Systems: Pairing Peptides to G Protein-Coupled Receptors” (Cell, 2019).

Read-outs that look alike come from different tables or passages of the source. No end group written: not given here.

In this series the test system is human GPCRs. Also on record: method as in Guide to Pharmacology database. Conditions: max reported value, ref Guide to Pharmacology database, cited from earlier work. The text has this: Supplement mmc1.xlsx, sheet "HumanGPCRLigands" | column: pKi_value; pKd_value; pEC50_value; pIC50_value
Setting [1] is: receptor ghsr_human (GHSR, Q92847).
The mark [2] stands for this setting: receptor glp1r_human (GLP1R, P43220).
Setting [3] is: receptor glp2r_human (GLP2R, O95838).
Where [4] appears, read: receptor kissr_human (KISS1R, Q969F8).
The mark [5] stands for this setting: receptor nmur1_human (NMUR1, Q9HB89).
Setting [6] is: receptor nmur2_human (NMUR2, Q9GZQ4).
Where [7] appears, read: receptor npbw2_human (NPBWR2, P48146).
Where [8] appears, read: receptor npbw1_human (NPBWR1, P48145).
The mark [9] stands for this setting: receptor NPY4R (npy4r_human, P50391).
Where [10] appears, read: receptor NPY5R (npy5r_human, Q15761).
[11] abbreviates: receptor OPRL1 (oprx_human, P41146).

Take “ghrelin (GSSFLSPEHQRVQQRKESKKPPAKLQPR; not fully specified; ends and bridges not checked; UniProt Q9UBU3 24-51, looked up)”: under setting [1], the pEC50_value is reported as 7.5, the pKd_value is 9.4 and the pKi_value is 8.1.

On to glucagon, for which the pKi_value under setting [2] is given as 7. For the same substance, under “receptor glr_human (GCGR, P47871)”, the pEC50_value is listed as 9.

In the case of glucagon-like peptide 1-(7-36) amide, the pKi_value under setting [2] is reported as 9.2.

Turning to glucagon-like peptide 2, under setting [3], the pIC50_value was 8.5.

On to “glucagon-like peptide 2-(3-33) (DGSFSDEMNTILDNLAARDFINWLIQTKITD; Glucagon-like peptide 2; UniProt P01275 148-178, looked up, fragment)”, for which the pIC50_value under setting [3] was 7.4.

As to humanin, the pEC50_value (receptor fpr3_human (FPR3, P25089)) is 8.9.

For the substance kallidin, the pKi_value (receptor bkrb1_human (BDKRB1, P46663)) is listed as 8.9. In addition, the pIC50_value (receptor bkrb2_human (BDKRB2, P30411)) is given as 9.3.

As for “kisspeptin-13 (LPNYNWNSFGLRF; not fully specified; ends and bridges not checked; UniProt Q15726 109-121, looked up)”, the pKi_value under setting [4] is reported as 8.4.

With “kisspeptin-14 (DLPNYNWNSFGLRF; not fully specified; ends and bridges not checked; UniProt Q15726 108-121, looked up)”, the pKi_value under setting [4] is 8.8.

Consider “kisspeptin-54 (GTSLSPPPESSGSPQQPGLSAPHSRQIPAPQGAVLVQREKDLPNYNWNSFGLRF; ends and bridges not checked; UniProt Q15726 68-121, looked up)”, for which the pKi_value under setting [4] is 9.5.

lysophosphatidylinositol: the pEC50_value (receptor GPR55 (gpr55_human, Q9Y2T6)) is recorded as 7.3.

For the substance melanin-concentrating hormone, for the setting “receptor mchr1_human (MCHR1, Q99705)”, the pKi_value is recorded as 10.5. Further, where the note is “receptor mchr2_human (MCHR2, Q969V1)”, the pIC50_value was 9.2.

For the substance “neuromedin S-33 (ILQRGSGTAAVDFTKKDHTATWGRPFFLFRPRN; not fully specified; ends and bridges not checked; UniProt Q5H8A3 109-141, looked up)”, under setting [5], the pEC50_value is 10.2 and the pIC50_value is reported as 10. In addition, under setting [6], the pEC50_value was 10 and the pIC50_value is on record as 9.2.

Take “neuromedin U-25 (FRVDEEFQSPFASQSRGYFLFRPRN-NH2)”: under setting [5], the pEC50_value was 9.4 and the pKi_value is 9.5. Further, under setting [6], the pEC50_value is 9.4 and the pKi_value was 9.6.

On to “neuropeptide B-23 (WYKPAAGHSSYSVGRAAGLLSGL)”, for which the pIC50_value under setting [7] is given as 8.4.

In the case of “neuropeptide B-29 (WYKPAAGHSSYSVGRAAGLLSGLRRSPYA; not fully specified; UniProt Q8NG41 25-53, looked up)”, the pIC50_value by setting is: (receptor NPBWR2 (npbw2_human, P48146)) 9; under setting [8], 9.5.

For neuropeptide FF, the pKi_value reads like this: (receptor npff1_human (NPFFR1, Q9GZQ6)) 9.9; (receptor npff2_human (NPFFR2, Q9Y5X5)) 9.7.

In the case of “neuropeptide W-23 (WYKHVASPRYHTVGRAAGLLMGL)”, the pIC50_value under setting [8] is 10 and the pIC50_value under setting [7] was 9.6.

For “neuropeptide W-30 (WYKHVASPRYHTVGRAAGLLMGLRRSPYLW; not fully specified; UniProt Q8N729 33-62, looked up)”, the pIC50_value is, setting by setting: under setting [8], 10.6; under setting [7], 9.4.

As to neuropeptide Y, the pKi_value is 8 under setting [9] and 9.1 under setting [10].

For the substance nociceptin/orphanin FQ, under setting [11], the pEC50_value is 9.8 and the pKi_value is listed as 10.4.

As to “orexin-A (QPLPDCCRQKTCSCRLYELLHGAGNHAAGILTL; not fully specified; ends and bridges not checked; UniProt O43612 34-66, looked up)”, the pEC50_value reads like this: (receptor HCRTR1 (ox1r_human, O43613)) 10.2; (receptor HCRTR2 (ox2r_human, O43614)) 10.

With pancreatic polypeptide, the pKi_value by setting is: under setting [9], 10.9; under setting [10], 8.
